Data reported in ChEMBL document CHEMBL3400090, “Benzofused hydroxamic acids: useful fragments for the preparation of histone deacetylase inhibitors. Part 2: 7-fluorobenzothiophenes and benzofurans” (Bioorg Med Chem Lett, 2015).

Legend:
[1] = molecular target: T1, Histone deacetylase (Rattus norvegicus) (UniProt Q6P6W3+Q99P99+Q99P96+Q4QQW4+Q99P97+Q5RJZ2+B1WBY8); details: at 0.1 µM
Description: Inhibition of isolated rat liver HDAC using substrate containing acetylated lysine side chain assessed as release of fluorophore at 0.1 uM by Fluor de Lys assay

[2] = molecular target: T1, Histone deacetylase (Rattus norvegicus); details: at 0.01 µM
Description: Inhibition of isolated rat liver HDAC using substrate containing acetylated lysine side chain assessed as release of fluorophore at 0.01 uM by Fluor de Lys assay

[3] = Antiproliferative activity against human HCT116 cells after 5 days by Alamar Blue assay; type: functional, cell-based; details: HCT-116, 120 h

SMILES | inhibition [1] | inhibition [2] | IC50 [3]
O=C(NO)c1cc2ccc(CN3CCc4ccccc4C3)c(F)c2s1 | 45% | < 20% | 3000 nM
CN(C)c1ccc(CC(=O)Nc2ccc3oc(C(=O)NO)cc3c2)cc1 | 34% | < 20% | –
O=C(NCc1ccc2cc(C(=O)NO)sc2c1F)c1ccc[nH]1 | 76% | 45% | 300 nM
CN(C)CCCC(=O)Nc1ccc2oc(C(=O)NO)cc2c1 | 26% | < 20% | –
O=C(NCc1ccc2cc(C(=O)NO)sc2c1F)c1ccco1 | 78% | 39% | 90 nM
CN(C)c1ccc(C(=O)NCc2ccc3cc(C(=O)NO)sc3c2F)cc1 | 61% | < 20% | 60 nM
O=C(NCc1ccc2cc(C(=O)NO)sc2c1F)c1ccccc1 | 64% | 24% | 980 nM
COc1ccc(CC(=O)Nc2ccc3oc(C(=O)NO)cc3c2)cc1 | 42% | < 20% | 2700 nM
O=C(NCc1ccc2cc(C(=O)NO)oc2c1)c1ccco1 | 27% | < 20% | –
O=C(NO)c1cc2ccc(CN(CCO)Cc3ccccc3)c(F)c2s1 | 48% | < 20% | 800 nM
COCc1ccc(C(=O)NCc2ccc3cc(C(=O)NO)sc3c2F)o1 | 67% | 23% | 310 nM
COc1ccc(C(=O)NCc2ccc3cc(C(=O)NO)sc3c2F)cc1 | 78% | 39% | 50 nM
O=C(NCc1ccc2oc(C(=O)NO)cc2c1)c1ccco1 | 45% | < 20% | 860 nM

More lines, main results first:

inhibition [1] | inhibition [2] | SMILES | IC50 [3]
80% | 41% | Cc1ccc(C(=O)NCc2ccc3cc(C(=O)NO)sc3c2F)s1 | 120 nM
49% | < 20% | O=C(NCc1ccc2oc(C(=O)NO)cc2c1)c1ccccc1 | 690 nM
32% | < 20% | COc1cccc(CC(=O)Nc2ccc3oc(C(=O)NO)cc3c2)c1 | –
56% | < 20% | COc1ccccc1C(=O)NCc1ccc2cc(C(=O)NO)sc2c1F | 1200 nM
59% | 21% | Cc1cc(C(=O)NCc2ccc3cc(C(=O)NO)sc3c2F)oc1C | 470 nM
41% | < 20% | O=C(Cc1ccccc1)Nc1ccc2oc(C(=O)NO)cc2c1 | 1700 nM
61% | 20% | Cc1ncoc1C(=O)NCc1ccc2cc(C(=O)NO)sc2c1F | 210 nM
